In BigSolDB 2.1:

O=c1cc(-c2ccccc2)c2cc(O)c(O)cc2o1
solubility (mole fraction)
Conditions | in acetone | in chloroform | in ethyl acetate | in methanol | in n-hexane | in water
283.2 K | 0.0022 | 3.75e-08 | 0.000553 | 0.000986 | 2.04e-08 | 7.94e-08
288.2 K | 0.00228 | 4.16e-08 | 0.000572 | 0.00102 | 4.3e-08 | 1.39e-07
293.2 K | 0.00237 | 5.93e-08 | 0.000616 | 0.0011 | 5.6e-08 | 1.92e-07
299.2 K | 0.00246 | 7.09e-08 | 0.000928 | 0.00129 | 7.86e-08 | 2.39e-07
303.2 K | 0.00266 | 1.04e-07 | 0.00101 | 0.00147 | 8.43e-08 | 2.51e-07
308.2 K | 0.00299 | 1.71e-07 | 0.00139 | 0.00179 | 1.35e-07 | 3.57e-07

COc1cc2oc(=O)cc(-c3ccccc3)c2cc1O
solubility (mole fraction)
Conditions | in acetone | in chloroform | in ethyl acetate | in methanol | in n-hexane | in water
283.2 K | 0.00229 | 0.00313 | 0.0014 | 0.000504 | 3.88e-06 | 1.03e-07
288.2 K | 0.00237 | 0.00361 | 0.00153 | 0.000516 | 4.03e-06 | 1.11e-07
293.2 K | 0.00256 | 0.00374 | 0.00165 | 0.000542 | 4.09e-06 | 1.12e-07
299.2 K | 0.0027 | 0.00414 | 0.00193 | 0.000646 | 4.48e-06 | 1.12e-07
303.2 K | 0.00326 | 0.00457 | 0.00204 | 0.000722 | 4.76e-06 | 1.44e-07
308.2 K | 0.0037 | 0.0059 | 0.00223 | 0.000835 | 5.36e-06 | 1.64e-07
